Source: patent US20060084628A1, “Combination therapy for treating viral infections” (priority 2004, published 2006)
Like-named read-outs stand apart in the source and are kept apart here.

Tests used:
[1] = Population PK analysis of plasma and urine data, healthy subjects, 1×20 mg tablet PO (ACH443-011); conditions: human, in vivo
Experimental: The PK model created included an individual compartmental PK analysis using ADAPT-II® and Population PK analysis using an iterative two-stage population modeling technique (IT2S®) of plasma and urine data from a study of healthy subjects, n=29, 1×20 mg tablet PO (ACH443-011). FIG. 1 illustrates the PK model of Elvucitabine according to a three compartment model characterized by two absorption peaks, each associated with a lag (Tlag1 and Tlag2) time and a first order absorption rate constant (Ka1 and Ka2).
FIG. 2 illustrates an example of individual fit using a Population PK analysis (IT2S).

[2] = Hematology (ANC, white blood cell count) in 12 week study in HBV patients; assay type: in vivo, human
Experimental: Pharmacodynamics of Elvucitabine was explored by analysis of hematology (absolute neutrophil count, ANC) data obtained from a 12 week study in HBV patients. FIG. 3 illustrates the change in mean white blood cell count from baseline for three dosages of Elvucitabine (5 mg, 20 mg, and 50 mg), 100 mg 3TC, and placebo. […] FIG. 4 is a graphic representation of the change in absolute neutrophils from baseline for the same study. Table 2 provides absolute neutrophil count at 10^9/L for the three doses resulting in a baseline estimated as the mean ANC of about 4×10^9/L. A 25 percent decrease in the mean ANC corresponds to about 3×10^9/L, the threshold for the start of toxicity.

HIV = experiment: In vitro IC50 for HIV; assay type: cell-based; conditions: Human immunodeficiency virus 1
Experimental: (§1) From the foregoing results, a therapeutic window of Elvucitabine was identified. It has been determined that a 5 mg QD dose is effective for HBV and, therefore, a plasma AUCss/24 of 300 μg·h/L was identified as the efficacy threshold.

[3] = PK/PD relationship: toxicity threshold and therapeutic window (simulated concentrations vs observed ANC); set-up: species or system human
Text: Pharmacokinetics and pharmacodynamics modeling was used to explore potential dosing regimens for Elvucitabine. A pharmacokinetics (PK) model was developed to describe both the plasma concentration-time data and excreted urinary amounts from previously completed studies with Elvucitabine. With the PK model in hand and pharmacodynamics (PD) results of previously completed studies, the relationship of PK and PD from an efficacy and toxicity standpoint is obtained. From the results of the PK and PD studies, a therapeutic window of Elvucitabine is defined and simulated dosing regimens ranging from 5 mg BID to 100 mg Q1 week were explored using ADAPT II® Pharmacokinetic and Pharmacodynamic Systems Analysis Software. From the simulated dosing regimen results, ten dosing regimens were identified allowing maintenance therapy with Elvucitabine at levels effective against both HIV and HBV while avoiding bone toxicity.
FIG. 5 provides a plot of the mean observed ANC and a simulated concentration-time profile for the 5 mg QD dose. As shown by the graph, the toxicity threshold is not met by the dosing regimen. As provided in FIG. 6, the 20 mg QD dose crosses the toxicity threshold at about 1008 hours.
as §1

HBV = experiment: Efficacy of daily dosing for HBV; assay type: in vivo, human; conditions: 5 mg QD dose
Experimental: as §1

For `Nc1nc(=O)n([C@H]2C=C[C@@H](CO)O2)cc1F` [Elvucitabine, 4-amino-5-fluoro-1-((2R,5 S)-5-(hydroxymethyl)-2,5-dihydrofuran-2-yl)pyrimidin-2(1H)-one], the Vd [1] was 1600 L, the “fraction of drug excreted unchanged in urine” value [1] was “about 40%” and the half-life ([1]; distribution (λ2) half-life) was 30 h. It also gave a half-life ([1]; early distribution (λ1) half-life) of 0.59 h, a half-life ([1]; elimination (λz) half-life) of 175 h and a CLnr/F ([1]; po) of 9.51 L/h. For the same molecule, the Fu ([1]; po) was 39.6%, the Vc/F ([1]; po) was 30.6 L and the Vp1/F ([1]; po) was 1232 L. For the same molecule, the Vp2/F ([1]; po) was 369 L, the “oral clearance (CL/F)” value ([1]; po) was 16 L/h and the CL renal ([1]; po, 20 mg) was 105 mL/min. The CL/F ([1]; po, 20 mg) was 15.8 L/h, the Vd/F ([1]; population PK, healthy subjects, 20 mg tablet PO, read-out: Vss/F) was 1630 L and the “Absolute Neutrophil Count (ANC), Mean” value ([2]; 5 mg PO daily (n = 17), Week 0) was 4.1 10^9/L. For the same molecule, the “Absolute Neutrophil Count (ANC), Mean” value ([2]; 5 mg PO daily (n = 17), Week 2) was 3.4 10^9/L, the “Absolute Neutrophil Count (ANC), Mean” value ([2]; 5 mg PO daily (n = 17), Week 4) was 3.4 10^9/L and the “Absolute Neutrophil Count (ANC), Mean” value ([2]; 5 mg PO daily (n = 17), Week 8) was 3.5 10^9/L. For the same molecule, the “Absolute Neutrophil Count (ANC), Mean” value ([2]; 5 mg PO daily (n = 17), Week 12) was 3.6 10^9/L, the “Absolute Neutrophil Count (ANC), Mean” value ([2]; 20 mg PO daily (n = 20), Week 0) was 3.8 10^9/L and the “Absolute Neutrophil Count (ANC), Mean” value ([2]; 20 mg PO daily (n = 20), Week 2) was 3.7 10^9/L. The “Absolute Neutrophil Count (ANC), Mean” value ([2]; 20 mg PO daily (n = 20), Week 4) was 3.2 10^9/L, the “Absolute Neutrophil Count (ANC), Mean” value ([2]; 20 mg PO daily (n = 20), Week 8) was 2.8 10^9/L and the “Absolute Neutrophil Count (ANC), Mean” value ([2]; 20 mg PO daily (n = 20), Week 12) was 2.7 10^9/L. For the same molecule, the “change in mean white blood cell count from baseline” value ([2]; 50 mg (highest dose), HBV patients, FIG. 3) was “significant decrease”, the “Absolute Neutrophil Count (ANC), Mean” value ([2]; 50 mg PO daily (n = 19), Week 0) was 4.1 10^9/L and the “Absolute Neutrophil Count (ANC), Mean” value ([2]; 50 mg PO daily (n = 19), Week 2) was 3.1 10^9/L. For the same molecule, the “Absolute Neutrophil Count (ANC), Mean” value ([2]; 50 mg PO daily (n = 19), Week 4) was 2.3 10^9/L, the “Absolute Neutrophil Count (ANC), Mean” value ([2]; 50 mg PO daily (n = 19), Week 8) was 2.2 10^9/L and the “Absolute Neutrophil Count (ANC), Mean” value ([2]; 50 mg PO daily (n = 19), Week 12) was 2.6 10^9/L. For the same molecule, the IC50 (HIV; corresponds to 4.8 nM, read-out: in vitro IC50 for HIV, as concentration) was 1.08 ng/mL, the IC50 (HIV; read-out: in vitro IC50 for HIV) was 4.8 nM and the “central compartment (plasma) Cmin correlating with onset of toxicity” value [3] was no less than 0.023 µg/mL. For the same molecule, the “toxicity threshold (mean ANC about 3×10^9/L)” value ([3]; 5 mg QD, FIG. 5) was “not met”, the “time at which toxicity threshold (mean ANC about 3×10^9/L) is crossed” value ([3]; 20 mg QD, FIG. 6) was “about 1008 hours” and the “time at which toxicity threshold (mean ANC about 3×10^9/L) is reached” value ([3]; 50 mg QD, FIG. 7) was 378 hours. The Cmin for efficacy ([3]; HIV, based on in vitro IC50) was no less than 0.002 µg/mL, the “plasma AUCss/24 efficacy threshold” value ([3]; from 5 mg QD effective for HBV) was 0.3 µg·h/mL and the “Cmax in deepest (P1) compartment at onset of toxicity (ANC <3×10^9/L)” value ([3]; human) was greater than 40 μg/L. The “efficacy for HBV” value (HBV) was “effective”.
